Data taken from PubChem BioAssay (NCI).
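Abbreviation: GI50, concentration required for 50% inhibition of growth. TGI denotes the concentration required for complete inhibition of growth.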

Tests used:
Assay in all cases: NCI-60 cell line screen, 384-well format
[1] = test system: CAKI-1 renal
[2] = test system: SK-MEL-2 melanoma
[3] = test system: HCC-2998 colon
[4] = test system: NCI-H322M lung
[5] = test system: EKVX NSCLC
[6] = test system: HL-60(TB) leukemia
[7] = test system: U251 glioblastoma
[8] = test system: MALME-3M melanoma
[9] = test system: SNB-75 CNS
[10] = test system: NCI-H522 lung
[11] = test system: TK-10 renal
[12] = test system: SK-OV-3 ovarian
[13] = test system: OVCAR-5 ovarian
[14] = test system: ACHN renal
[15] = test system: MDA-MB-435 melanoma
[16] = test system: NCI/ADR-RES ovarian
[17] = test system: KM12 colon
[18] = test system: HS 578T breast
[19] = test system: MDA-MB-231 breast
[20] = test system: SF-268 CNS
[21] = test system: HCT-116 colon
[22] = test system: LOX IMVI melanoma
[23] = test system: T-47D breast
[24] = test system: SW-620 colon
[25] = test system: OVCAR-3 ovarian
[26] = test system: MDA-MB-468 breast
[27] = test system: PC-3 prostate
[28] = test system: A498 renal
[29] = test system: SF-539 CNS
[30] = test system: UACC-62 melanoma

CNC(=O)c1cccc2cc(Oc3ccnc4cc(OCC5(N)CC5)c(OC)cc34)ccc12
GI50 [1]: 2.02 µM
TGI [1]: 5.35 µM
GI50 [2]: 1.89 µM
TGI [2]: 4.35 µM
GI50 [3]: 5.53 µM
TGI [3]: 16 µM
GI50 [4]: 6.8 µM
TGI [4]: 19.4 µM
GI50 [5]: 3.66 µM
TGI [5]: 14.8 µM
GI50 [6]: 2.28 µM
TGI [6]: 3.75 µM
GI50 [7]: 3.73 µM
TGI [7]: 14.9 µM
GI50 [8]: 4.05 µM
TGI [8]: 15.7 µM
GI50 [9]: 1.02 µM
TGI [9]: 9.33 µM
GI50 [10]: 2.75 µM
TGI [10]: 9.57 µM
GI50 [11]: 2.55 µM
TGI [11]: 6.52 µM
GI50 [12]: 3.01 µM
TGI [12]: 11.6 µM
GI50 [13]: 5.37 µM
TGI [13]: 16.8 µM
GI50 [14]: 1.67 µM
TGI [14]: 3.37 µM
GI50 [15]: 2.63 µM
TGI [15]: 7.43 µM
GI50 [16]: 13.3 µM
TGI [16]: 27 µM
GI50 [17]: 3.83 µM
TGI [17]: 15.1 µM
GI50 [18]: 1.23 µM
TGI [18]: 4.08 µM
GI50 [19]: 3.64 µM
TGI [19]: 14.4 µM
GI50 [20]: 4.31 µM
TGI [20]: 17.9 µM
GI50 [21]: 1.98 µM
TGI [21]: 3.84 µM
GI50 [22]: 2.41 µM
TGI [22]: 5.84 µM
GI50 [23]: 2.14 µM
TGI [23]: 7.39 µM
GI50 [24]: 4.12 µM
TGI [24]: 15 µM
GI50 [25]: 2.23 µM
TGI [25]: 5.94 µM
GI50 [26]: 2.38 µM
TGI [26]: 5.54 µM
GI50 [27]: 4.42 µM
TGI [27]: 16.2 µM
GI50 [28]: 2.5 µM
TGI [28]: 6.93 µM
GI50 [29]: 0.621 µM
TGI [29]: 4.94 µM
GI50 [30]: 2.37 µM
